Results on twelve compounds are retold here after patent US11957759B1, “Rapidly accelerated fibrosarcoma (RAF) degrading compounds and associated methods of use” (Arvinas Operations, Inc., priority 2022, dated 2024).

Experiment [1] has as its target T1, B-RAF V600E (Homo sapiens, UniProt P15056, V600E).
T1 construct: expressed in transfected cells; host or cells: T-Rex 293 cells (Invitrogen #R71007)
The experiment is described as follows: Target protein degradation, assay C: T-Rex 293 cells, HA-BRAF_V600E, 384 well format. It is filed as cell-based. Conditions: T-Rex 293 HA-BRAF_V600E cells, 24 hours, Examples 83-269; for DC50: Assay C; for Dmax: T-REx-293, Assay C. The method in brief: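 T-Rex 293 cells stably expressing doxycycline-induced (1 ng/mL) HA-BRAF V600E were treated 24 h at 37 °C with compound (300 nM–5 pM, 11 points, 0.5% DMSO). HA immunofluorescence was quantified by high-content imaging to give DC50 and Dmax (% of control); nuclei counts versus DMSO gauged toxicity.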

Experiment [2] deals with T2, B-RAF G466V (Homo sapiens, UniProt P15056, G466V).
T2 construct: expressed in transfected cells; host or cells: T-Rex 293 cells (Invitrogen #R71007)
T2 sequence (P15056 whole entry G466V): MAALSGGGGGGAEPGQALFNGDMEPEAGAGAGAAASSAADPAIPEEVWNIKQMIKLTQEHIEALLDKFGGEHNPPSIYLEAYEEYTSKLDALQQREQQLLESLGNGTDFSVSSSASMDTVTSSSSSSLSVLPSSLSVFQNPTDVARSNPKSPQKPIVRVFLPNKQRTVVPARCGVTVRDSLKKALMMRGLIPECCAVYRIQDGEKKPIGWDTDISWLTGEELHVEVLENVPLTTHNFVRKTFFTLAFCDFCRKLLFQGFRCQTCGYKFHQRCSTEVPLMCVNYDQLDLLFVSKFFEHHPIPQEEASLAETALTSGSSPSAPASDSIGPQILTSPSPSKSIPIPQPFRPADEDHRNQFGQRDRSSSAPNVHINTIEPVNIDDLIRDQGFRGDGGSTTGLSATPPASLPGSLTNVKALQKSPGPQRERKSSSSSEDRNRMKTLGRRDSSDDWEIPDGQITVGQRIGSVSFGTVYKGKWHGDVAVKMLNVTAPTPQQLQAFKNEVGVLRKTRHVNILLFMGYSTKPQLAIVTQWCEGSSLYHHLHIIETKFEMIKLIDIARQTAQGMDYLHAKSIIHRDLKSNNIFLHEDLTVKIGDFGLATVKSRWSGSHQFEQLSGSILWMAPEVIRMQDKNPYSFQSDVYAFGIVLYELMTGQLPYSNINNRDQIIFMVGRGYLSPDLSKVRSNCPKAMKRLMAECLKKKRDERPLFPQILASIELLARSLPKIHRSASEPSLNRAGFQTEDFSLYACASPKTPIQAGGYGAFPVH
The experiment is described as follows: Target protein degradation, assay D: T-Rex 293 cells, HA-BRAF_G466V, 384 well format. The format is cell-based. Particulars: T-Rex 293 HA-BRAF_G466V cells, 24 hours, Examples 83-269; for DC50: Assay D; for Dmax: T-REx-293, Assay D. The method in brief:
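T-Rex 293 cells stably expressing doxycycline-induced (1 ng/mL) HA-BRAF G466V treated 24 h at 37 °C with PROTACs, 11-point 1:3 dilution, 300 nM to 5 pM final, 0.5% DMSO. Fixed cells immunostained for HA and imaged by high-content microscopy; DC50 and Dmax (% of control) derived, toxicity from nuclei counts versus DMSO.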

T1 sequence (P15056 whole entry V600E): as the sequence (P15056 whole entry G466V) above, with V466G, V600E counted along it

What is called DC50 is the concentration at which degradation of the target reaches its halfway point. In general, Dmax refers to the largest share of the target that was removed. Lower therefore signals a partial loss of target. For `Cn1c(=O)n(C2CCC(=O)NC2=O)c2cccc(N3CCN(CCN4CCN(c5ccc(-n6cnc7ccc(Oc8c(F)ccc(NS(=O)(=O)N9CC[C@@H](F)C9)c8C#N)cc7c6=O)cc5)CC4)CC3)c21` (stereo partly drawn) [Example 245, (3R)-N-{2-cyano-3-[(3-{4-[4-(2-{4-[1-(2,6-dioxopiperidin-3-yl)-3-methyl-2-oxo-2,3-dihydro-1H-1,3-benzodiazol-4-yl]piperazin-1-yl}ethyl)piperazin-1-yl]phenyl}-4-oxo-3,4-dihydroquinazolin-6-yl)oxy]-4-fluorophenyl}-3-fluoropyrrolidine-1-sulfonamide], in experiment [1], the DC50 was in the range of 0.05 to 0.5 µM and the Dmax was no less than 70%. In experiment [2], this compound registered a DC50 of 0.001 to 0.01 µM and a Dmax of 35 to 70%.
`Cn1c(=O)n(C2CCC(=O)NC2=O)c2cccc(N3CC4(CC(CN5CCN(c6ccc(-n7cnc8ccc(Oc9c(F)ccc(NS(=O)(=O)N%10CC[C@@H](F)C%10)c9C#N)cc8c7=O)cc6)CC5)C4)C3)c21` (stereo partly drawn) [Example 246, (3R)-N-{2-cyano-3-[(3-{4-[4-({2-[1-(2,6-dioxopiperidin-3-yl)-3-methyl-2-oxo-2,3-dihydro-1H-1,3-benzodiazol-4-yl]-2-azaspiro[3.3]heptan-6-yl}methyl)piperazin-1-yl]phenyl}-4-oxo-3,4-dihydroquinazolin-6-yl)oxy]-4-fluorophenyl}-3-fluoropyrrolidine-1-sulfonamide]: the DC50 was 0.05 to 0.5 µM in experiment [1] and 0.001 to 0.01 µM in experiment [2]. Besides, the Dmax in experiment [1] and in experiment [2] was 35 to 70% throughout.
`N#Cc1c(NS(=O)(=O)N2CC[C@@H](F)C2)ccc(F)c1Oc1ccc2ncn(-c3ccc(N4CCN(CC5CN(c6cc(F)c7c(c6)CN(C6CCC(=O)NC6=O)C7=O)C5)CC4)cc3)c(=O)c2c1` (stereo partly drawn) [Example 247, (3R)—N-{2-cyano-3-[(3-{4-[4-({1-[2-(2,6-dioxopiperidin-3-yl)-7-fluoro-1-oxo-2,3-dihydro-1H-isoindol-5-yl]azetidin-3-yl}methyl)piperazin-1-yl]phenyl}-4-oxo-3,4-dihydroquinazolin-6-yl)oxy]-4-fluorophenyl}-3-fluoropyrrolidine-1-sulfonamide]: in experiment [1], the DC50 is 0.05 to 0.5 µM and the Dmax was no less than 70%. Further, in experiment [2], the DC50 is 0.001 to 0.01 µM and the Dmax fell in the range of 35 to 70%.
Take `N#Cc1c(NS(=O)(=O)N2CC[C@@H](F)C2)ccc(F)c1Oc1ccc2ncn(-c3ccn(C4CCN(CC5CCN(c6ccc7c(c6)CN([C@H]6CCC(=O)NC6=O)C7=O)CC5)CC4)n3)c(=O)c2c1` [Example 248, (3R)—N-(2-cyano-3-{[3-(1-{1-[(1-{2-[(3S)-2,6-dioxopiperidin-3-yl]-1-oxo-2,3-dihydro-1H-isoindol-5-yl}piperidin-4-yl)methyl]piperidin-4-yl}-1H-pyrazol-3-yl)-4-oxo-3,4-dihydroquinazolin-6-yl]oxy}-4-fluorophenyl)-3-fluoropyrrolidine-1-sulfonamide]: in experiment [1], the DC50 was 0.05 to 0.5 µM and the Dmax was no less than 70%. In experiment [2], this compound displayed a DC50 of 0.001 to 0.01 µM and a Dmax of no less than 70%.
On to `N#Cc1c(NS(=O)(=O)N2CC[C@@H](F)C2)ccc(F)c1Oc1ccc2ncn(-c3ccc(C4CCN([C@H]5C[C@H](OC6CCN(c7ccc8c(c7)CN(C7CCC(=O)NC7=O)C8=O)CC6)C5)CC4)cc3)c(=O)c2c1` (stereo partly drawn) [Example 249, (3R)—N-(2-cyano-4-fluoro-3-{[4-oxo-3-(4-{1-[(1r,3r)-3-({1-[2-(2,6-dioxopiperidin-3-yl)-1-oxo-2,3-dihydro-1H-isoindol-5-yl]piperidin-4-yl}oxy)cyclobutyl]piperidin-4-yl}phenyl)-3,4-dihydroquinazolin-6-yl]oxy}phenyl)-3-fluoropyrrolidine-1-sulfonamide], for which the DC50 in experiment [1] was greater than 0.5 µM. In experiment [2], this compound returned a DC50 of 0.001 to 0.01 µM and a Dmax of 35 to 70%.
Regarding `N#Cc1c(NS(=O)(=O)N2CC[C@@H](F)C2)ccc(F)c1Oc1ccc2ncn(-c3ccc(N4CCC5(CC4)CC(OC4CCN(c6ccc7c(c6)CN([C@H]6CCC(=O)NC6=O)C7=O)CC4)C5)cc3)c(=O)c2c1` [Example 250, (3R)—N-(2-cyano-3-{[3-(4-{2-[(1-{2-[(3S)-2,6-dioxopiperidin-3-yl]-1-oxo-2,3-dihydro-1H-isoindol-5-yl}piperidin-4-yl)oxy]-7-azaspiro[3.5]nonan-7-yl}phenyl)-4-oxo-3,4-dihydroquinazolin-6-yl]oxy}-4-fluorophenyl)-3-fluoropyrrolidine-1-sulfonamide], in experiment [1], the DC50 fell in the range of 0.05 to 0.5 µM and the Dmax is 35 to 70%. Further, in experiment [2], the DC50 is 0.001 to 0.01 µM and the Dmax is 35 to 70%.
For `N#Cc1c(NS(=O)(=O)N2CC[C@@H](F)C2)ccc(F)c1Oc1ccc2ncn(-c3ccc(N4CCN([C@H]5C[C@H](OC6CCN(c7ccc8c(c7)CN(C7CCC(=O)NC7=O)C8=O)CC6)C5)CC4)cc3)c(=O)c2c1` (stereo partly drawn) [Example 251, (3R)-N-(2-cyano-4-fluoro-3-{[4-oxo-3-(4-(4-[(1r,3r)-3-({1-[2-(2,6-dioxopiperidin-3-yl)-1-oxo-2,3-dihydro-1H-isoindol-5-yl]piperidin-4-yl}oxy)cyclobutyl]piperazin-1-yl}phenyl)-3,4-dihydroquinazolin-6-yl]oxy}phenyl)-3-fluoropyrrolidine-1-sulfonamide], the DC50 in experiment [1] lay within 0.05 to 0.5 µM; in experiment [2] it was 0.001 to 0.01 µM. The Dmax in experiment [1] and in experiment [2] was 35 to 70% each time.
For the compound `N#Cc1c(NS(=O)(=O)N2CC[C@@H](F)C2)ccc(F)c1Oc1ccc2ncn(-c3ccc(N4CCC5(CC4)CC(OC4CCN(c6ccc7c(c6)CN([C@@H]6CCC(=O)NC6=O)C7=O)CC4)C5)cc3)c(=O)c2c1` [Example 252, (3R)-N-(2-cyano-3-{[3-(4-{2-[(1-{2-[(3R)-2,6-dioxopiperidin-3-yl]-1-oxo-2,3-dihydro-1H-isoindol-5-yl}piperidin-4-yl)oxy]-7-azaspiro[3.5]nonan-7-yl}phenyl)-4-oxo-3,4-dihydroquinazolin-6-yl]oxy}-4-fluorophenyl)-3-fluoropyrrolidine-1-sulfonamide], in experiment [1], the DC50 fell in the range of 0.005 to 0.05 µM and the Dmax was no more than 35%. In experiment [2], this compound showed a DC50 of 0.001 to 0.01 µM and a Dmax of 35 to 70%.
As for `N#Cc1c(NS(=O)(=O)N2CC[C@@H](F)C2)ccc(F)c1Oc1ccc2ncn(-c3ccc(N4CCC(O[C@H]5C[C@H](N6CCC(c7ccc8c(c7)CN(C7CCC(=O)NC7=O)C8=O)CC6)C5)CC4)cc3)c(=O)c2c1` (stereo partly drawn) [Example 253, (3R)-N-(2-cyano-4-fluoro-3-{[4-oxo-3-(4-{4-[(1r,3r)-3-{4-[2-(2,6-dioxopiperidin-3-yl)-1-oxo-2,3-dihydro-1H-isoindol-5-yl]piperidin-1-yl}cyclobutoxy]piperidin-1-yl}phenyl)-3,4-dihydroquinazolin-6-yl]oxy}phenyl)-3-fluoropyrrolidine-1-sulfonamide], the DC50 in experiment [1] fell in the range of 0.05 to 0.5 µM; in experiment [2] it was 0.001 to 0.01 µM. The Dmax in experiment [1] and in experiment [2] was 35 to 70% in each case.
Consider `N#Cc1c(NS(=O)(=O)N2CC[C@@H](F)C2)ccc(F)c1Oc1ccc2ncn(-c3cccc(N4CCN(CC5CN(c6ccc7c(c6)CN([C@H]6CCC(=O)NC6=O)C7=O)C5)CC4)c3)c(=O)c2c1` [Example 254, (3R)-N-(2-cyano-3-{[3-(3-{4-[(1-{2-[(3S)-2,6-dioxopiperidin-3-yl]-1-oxo-2,3-dihydro-1H-isoindol-5-yl}azetidin-3-yl)methyl]piperazin-1-yl}phenyl)-4-oxo-3,4-dihydroquinazolin-6-yl]oxy}-4-fluorophenyl)-3-fluoropyrrolidine-1-sulfonamide], for which, in experiment [1], the DC50 was in the range of 0.05 to 0.5 µM and the Dmax lay within 35 to 70%. Besides, in experiment [2], the DC50 was 0.001 to 0.01 µM and the Dmax was no less than 70%.
With `N#Cc1c(NS(=O)(=O)N2CC[C@@H](F)C2)ccc(F)c1Oc1ccc2ncn(-c3cccc(C4CCN(CC5CN(c6ccc7c(c6)CN([C@H]6CCC(=O)NC6=O)C7=O)C5)CC4)c3)c(=O)c2c1` [Example 255, (3R)-N-(2-cyano-3-{[3-(3-{1-[(1-{2-[(3S)-2,6-dioxopiperidin-3-yl]-1-oxo-2,3-dihydro-1H-isoindol-5-yl}azetidin-3-yl)methyl]piperidin-4-yl}phenyl)-4-oxo-3,4-dihydroquinazolin-6-yl]oxy}-4-fluorophenyl)-3-fluoropyrrolidine-1-sulfonamide], the values for the DC50 in experiment [1] and in experiment [2] were 0.05 to 0.5 µM and 0.001 to 0.01 µM, respectively. Besides, the Dmax in experiment [1] was 35 to 70%; in experiment [2], no less than 70%.
On to `N#Cc1c(NS(=O)(=O)N2CC[C@@H](F)C2)ccc(F)c1Oc1ccc2ncn(-c3ccc(C4CCN(CC5CN(c6ccc7c(c6)CN([C@H]6CCC(=O)NC6=O)C7=O)C5)CC4)cc3)c(=O)c2c1` [Example 256, (3R)-N-(2-cyano-3-([3-(4-{1-[(1-{2-[(3S)-2,6-dioxopiperidin-3-yl]-1-oxo-2,3-dihydro-1H-isoindol-5-yl}azetidin-3-yl)methyl]piperidin-4-yl}phenyl)-4-oxo-3,4-dihydroquinazolin-6-yl]oxy}-4-fluorophenyl)-3-fluoropyrrolidine-1-sulfonamide], for which, in experiment [1], the DC50 fell in the range of 0.05 to 0.5 µM and the Dmax lay in the range of 35 to 70%. In addition, in experiment [2], the DC50 was 0.001 to 0.01 µM and the Dmax was no less than 70%.
